Measurements as given in paper PMC4058456, “Jacobsen Catalyst as a Cytochrome P450 Biomimetic Model for the Metabolism of Monensin A” (BioMed Research International, 2014).
In brackets after ≈: the same amount, converted by molar mass. Read-outs that look alike come from different tables or passages of the source. Marks after values point to notes of the source that are not given here.

Key:
[1] = tested on: Staphylococcus epidermidis ATCC 14990; experiment: Antimicrobial bioassay, minimal bactericidal concentration (MTT); type: cell-based
Description: (§1) The bioassays were carried out using the strains Staphylococcus aureus ATCC 25923, Staphylococcus aureus ATCC 43300 (MRSA-methicillin resistant), Staphylococcus epidermidis ATCC 14990, Pseudomonas aeruginosa ATCC 27853, and Escherichia coli ATCC 25922 all acquired from the American Type Culture Collection (ATCC). Approximately 5 × 10^5 microorganisms·mL^−1 were incubated in Muller Hinton broth in 96-well microtiter plates containing the samples to be tested. The compounds (monensin A, metabolite 1, and metabolite 2) were dissolved in dimethylsulfoxide (DMSO) and diluted into the medium to give 100, 50, 25, 12.5, 6.3, 3.1, 1.6, 0.8, 0.4, 0.2, 0.1, and 0.05 μg·mL^−1, as their final concentrations. The plates were incubated at 37°C and the bioassays were performed in triplicate. The cell death was determined by a MTT colorimetric method which was described by Andrews and Furtado et al.. The DMSO solution and chloramphenicol were used as controls of the experiment.

[2] = tested on: Staphylococcus aureus ATCC 25923; experiment: as above; type: cell-based; conditions: for MBC: Staphylococcus aureus
Description: as §1

[3] = tested on: Pseudomonas aeruginosa ATCC 27853; experiment: as above; type: cell-based
Description: as §1

[4] = tested on: Staphylococcus aureus ATCC 43300 (MRSA-methicillin resistant); experiment: as above; type: cell-based; conditions: for MBC: Staphylococcus aureus, read-out: Minimal bactericidal concentration
Description: as §1

[5] = tested on: Escherichia coli ATCC 25922; experiment: as above; type: cell-based
Description: as §1

rat liver mitochondria [6] = experiment: Mitochondrial membrane potential (safranin-o fluorescence); conditions: 1 μM
Description: (§2) Monensin A was diluted in ethanol to concentrations 0.01, 0.1, and 1 μM. All assays were performed in three replicates. Rat liver mitochondria were isolated by standard differential centrifugation according to Pereira et al. and the mitochondrial protein content was determined by the biuret method.
Mitochondrial Membrane potential (ΔΨ) was monitored spectrofluorimetrically using 10 μM safranin-o as a probe in a F-4500 spectrofluorometer (Hitachi) with the 495/586 nm excitation/emission wavelength pair. The mitochondria (1.0 mg protein·mL^−1) were incubated at 30°C in 2 mL of the standard reaction medium containing 125 mM sucrose, 65 mM KCl, and 10 mM HEPES-KOH, and CCCP (carbonyl cyanide 3-chlorophenylhydrazone) was added at the end of each experiment for the complete dissipation of the membrane potential.

rat liver mitochondria [7] = experiment: Mitochondrial respiration (oxygen consumption, Clark-type electrode); conditions: 1 μM
Description: as §2
Mitochondrial respiration was monitored polarographically with an oxygraph (Hansatech) equipped with a Clark-type oxygen electrode. The mitochondria (1.0 mg protein) were incubated at 30°C in 1 mL of the respiratory medium containing 125 mM sucrose, 65 mM KCl, 10 mM HEPES-KOH, 0.5 mM EGTA, and 10 mM K2HPO4; pH 7.2. 5 mM glutamate and malate were used as the oxidizable substrates for complex I; and mitochondrial oxidative phosphorylation (state 3) was initiated using 400 nmol ADP.

[8] = Biomimetic oxidation of monensin A catalysed by Jacobsen catalyst (CYP450 model), HPLC-ESI-MS; type: in vitro ADME; conditions: catalyst:oxidant:monensin A 1:20:20, CH2Cl2, room temperature, 24 h
Description: Based on the previous studies by this laboratory, the oxidation reactions were performed in an Eppendorf tube (2 mL), under mechanical stirring (Vibrax VXR agitator) at room temperature for 24 h. The ideal molar ratio obtained for the reaction was 1 : 20 : 20 (for catalyst : oxidant : monensin A). This was achieved by adding 0.3 mmol·L^-1 : 6 mmol·L^-1 : 6 mmol·L^−1 in the 0.5 mL of reaction medium (CH2Cl2). The oxidants were m-CPBA, PhIO, t-BOOH, and H2O2. The products from monensin A oxidation were analyzed by HPLC-ESI-MS. Control reactions were carried out in the absence of catalyst under the same conditions as the catalytic runs and no products were detected.
LC-ESI-MS analyses were performed on a Varian LC-MS 1200L triple quadrupole apparatus coupled to a mass spectrometer with ESI ionization in the positive mode (Varian Medical Systems Inc., Palo Alto, CA). The chromatographic analysis was performed using an injection volume of 10 μL, sample concentration 50 μg·mL^−1 in an Xterra analytical column MS C-18 (150 × 2.1 mm, 5 μm) (Waters) and following gradient (MeOH : H2O): 0.1 min 70% MeOH, 20.0 min 98% MeOH, 21.0 min 30% MeOH, and 30.0 min 70% MeOH. The MS conditions were capillary voltage 3.2 kV, cone voltage 40 V, source temperature 40°C, and N2 desolvation temperature 350°C. The percentage of monensin A oxidation was determined by using a calibration curve of 10–100 μg·mL^−1. The resulting mass spectra were monitored over a m/z range of 610 to 800.

rat liver mitochondria [9] = experiment: Mitochondrial swelling (apparent absorbance at 540 nm); conditions: 1 μM
Description: as §2
Mitochondrial swelling was estimated from the decrease in apparent absorbance at 540 nm performed with a Model DU-70 spectrophotometer (Beckman). The mitochondria were incubated using 30°C in 2 mL of the standard reaction medium.

rat liver mitochondria [10] = experiment: Mitochondrial ROS production (H2DCFDA); conditions: 1 μM
Description: as §2
Mitochondrial reactive oxygen species (ROS) production was monitored spectrofluorimetrically with 2′,7′-dichlorodihydrofluorescein diacetate (H2DCFDA) with the 503/529 nm excitation/emission wavelength pair, both using the standard reaction medium.

S. aureus ATCC 25923 = tested on: S. aureus ATCC 25923; parameters: method as in PMID 23509771; conditions: cited from earlier work
[11] = tested on: S. epidermidis ATCC 12228; parameters: method as in PMID 23509771; conditions: cited from earlier work
[12] = tested on: S. epidermidis ATCC 35984; parameters: method as in PMID 23509771; conditions: cited from earlier work
Bacillus subtilis = tested on: Bacillus subtilis; parameters: method as in PMID 17702333; conditions: bioautography against Bacillus subtilis; cited from earlier work
Streptococcus faecalis = tested on: Streptococcus faecalis; parameters: method as in PMID 17702333; conditions: turbidimetric assay against Streptococcus faecalis; cited from earlier work
[13] = ATCC14990, S. epidermidis ATCC 14990, read-out: Minimal bactericidal concentration
[14] = ATCC25923, S. aureus ATCC 25923, read-out: Minimal bactericidal concentration
[15] = ATCC27853, P. aeruginosa ATCC 27853, read-out: Minimal bactericidal concentration
[16] = ATCC25922, E. coli ATCC 25922, read-out: Minimal bactericidal concentration
[17] = isolated rat liver mitochondria 1.0 mg protein·mL−1

Compound	MBC [1, 13]	MBC [2, 14]	MBC [3, 15]	MBC ([4]; S. aureus ATCC 43300 (MRSA))	MBC [5, 16]	Minimal bactericidal concentration ([2]; S. aureus ATCC 25923)	Minimal bactericidal concentration ([4]; S. aureus ATCC 43300 (MRSA))	effect on mitochondrial membrane potential (in words) (rat liver mitochondria [6])	effect on mitochondrial respiratory parameters (in words) (rat liver mitochondria [7])	ADP/O (phosphorylation efficiency) (rat liver mitochondria [7]; [17])	RCR (respiratory control ratio) (rat liver mitochondria [7]; [17])	V3 (state 3 respiration rate) (rat liver mitochondria [7]; [17])	V4 (state 4 respiration rate) (rat liver mitochondria [7]; [17])	effect on mitochondrial swelling (in words) (rat liver mitochondria [9])	effect on mitochondrial ROS accumulation (in words) (rat liver mitochondria [10])	further results
O=C(N[C@H](CO)[C@H](O)c1ccc([N+](=O)[O-])cc1)C(Cl)Cl [Chloramphenicol, chloramphenicol, reference compound]	6.3 µg/mL (≈ 19.5 µM)	6.3 µg/mL (≈ 19.5 µM)	100 µg/mL (≈ 309 µM)	8.3 µg/mL (≈ 25.7 µM)	3.1 µg/mL (≈ 9.59 µM)	–	–	–	–	–	–	–	–	–	–	–
CC[C@@]1([C@@H]2O[C@@H]([C@H]3O[C@@](O)(CO)[C@H](C)C[C@@H]3C)C[C@@H]2C)CC[C@H]([C@]2(C)CC[C@]3(C[C@H](O)[C@@H](C)[C@@H]([C@@H](C)[C@@H](OC)[C@H](C)C(=O)O)O3)O2)O1 [Monensin A]	25 µg/mL (≈ 37.3 µM)	3.1 µg/mL (≈ 4.62 µM)	> 100 µg/mL	6.3 µg/mL (≈ 9.39 µM)	> 100 µg/mL	–	–	–	–	–	–	–	–	–	–	decrease on the mitochondrial membrane potential (rat liver mitochondria [6]; rat): 23.29%; ADP/O (phosphorylation efficiency) (rat liver mitochondria [7]; rat, pH 7.2): 1.498 ± 0.01^b; RCR (respiratory control ratio) (rat liver mitochondria [7]; rat, pH 7.2): 4.548 ± 0.16^b; V3 (state 3 respiration rate) (rat liver mitochondria [7]; rat, pH 7.2): 64.097 ± 2.35^a nmol O2/mg protein/min; V4 (state 4 respiration rate) (rat liver mitochondria [7]; rat, pH 7.2): 14.12 ± 0.97^b nmol O2/mg protein/min; decrease of respiratory control ratio (RCR) (rat liver mitochondria [7]; rat, pH 7.2): 32.59%; increase of state 4 of oxygen consumption (rat liver mitochondria [7]; rat, pH 7.2): 44.11%; reduction in ADP/O (rat liver mitochondria [7]; rat, pH 7.2): 47.73%; monensin conversion ([8]; oxidant H2O2): 26%; monensin conversion ([8]; oxidant PhIO): 36%; monensin conversion ([8]; oxidant m-CPBA): 27%; monensin conversion ([8]; oxidant t-BOOH): 14%; mitochondrial swelling, effect on the apparent turbidity (rat liver mitochondria [9]; rat): 54.61%; increase in accumulation of free radicals (ROS) (rat liver mitochondria [10]; rat): 12.14%; antimicrobial activity concentration (S. aureus ATCC 25923): 2.9 µg/mL; antimicrobial activity concentration [11]: 2.9 µg/mL; antimicrobial activity concentration [12]: 5.8 µg/mL
CCC1(C2OC(C3OC(O)(CO)C(C)CC3C)CC2C)CCC(C2(C)CCC3(CC(O)C(C)C(C(C)C(O)C(C)C(=O)O)O3)O2)O1 (centres unmarked) [Product 1, 3-O-demethyl monensin A]	–	–	–	–	–	25.0 µg/mL (≈ 38.1 µM)	50.0 µg/mL (≈ 76.1 µM)	no effect	none of these detrimental effects	2.757 ± 0.09^a	6.623 ± 0.27^a	66.363 ± 2.29^a nmol O2/mg protein/min	10.02 ± 0.11^a nmol O2/mg protein/min	no effect	no effect	antimicrobial activity relative to monensin (Bacillus subtilis): 5%; MBC ([1]; ATCC14990, read-out: Minimal bactericidal concentration): > 100 µg/mL; MBC ([2]; ATCC25923, read-out: Minimal bactericidal concentration): 25 µg/mL (≈ 38.1 µM); MBC ([3]; ATCC27853, read-out: Minimal bactericidal concentration): > 100 µg/mL; MBC [4]: 50 µg/mL (≈ 76.1 µM); MBC ([5]; ATCC25922, read-out: Minimal bactericidal concentration): > 100 µg/mL; antimicrobial activity relative to monensin (Streptococcus faecalis): 5%
CCC1(C2OC(C3OC(O)(CO)C(C)C(O)C3C)CC2C)CCC(C2(C)CCC3(CC(O)C(C)C(C(C)C(OC)C(C)C(=O)O)O3)O2)O1 (centres unmarked) [Product 2, 12-hydroxy monensin A]	> 100 µg/mL	> 100 µg/mL	> 100 µg/mL	> 100 µg/mL	> 100 µg/mL	> 100 µg/mL	> 100 µg/mL	no effect	none of these detrimental effects	2.728 ± 0.06^a	6.786 ± 0.15^a	66.730 ± 1.95^a nmol O2/mg protein/min	9.832 ± 0.07^a nmol O2/mg protein/min	no effect	no effect	–
